The values that follow come from ChEMBL document CHEMBL5143657, “Discovery, Topo I inhibitory activity and mechanism evaluation of two novel cytisine-type alkaloid dimers from the seeds of Sophora alopecuroides L” (Bioorg Med Chem, 2022).

For test [1], the target named is T1, DNA topoisomerase 1 (Homo sapiens) (UniProt P11387).
T1 sequence (whole entry): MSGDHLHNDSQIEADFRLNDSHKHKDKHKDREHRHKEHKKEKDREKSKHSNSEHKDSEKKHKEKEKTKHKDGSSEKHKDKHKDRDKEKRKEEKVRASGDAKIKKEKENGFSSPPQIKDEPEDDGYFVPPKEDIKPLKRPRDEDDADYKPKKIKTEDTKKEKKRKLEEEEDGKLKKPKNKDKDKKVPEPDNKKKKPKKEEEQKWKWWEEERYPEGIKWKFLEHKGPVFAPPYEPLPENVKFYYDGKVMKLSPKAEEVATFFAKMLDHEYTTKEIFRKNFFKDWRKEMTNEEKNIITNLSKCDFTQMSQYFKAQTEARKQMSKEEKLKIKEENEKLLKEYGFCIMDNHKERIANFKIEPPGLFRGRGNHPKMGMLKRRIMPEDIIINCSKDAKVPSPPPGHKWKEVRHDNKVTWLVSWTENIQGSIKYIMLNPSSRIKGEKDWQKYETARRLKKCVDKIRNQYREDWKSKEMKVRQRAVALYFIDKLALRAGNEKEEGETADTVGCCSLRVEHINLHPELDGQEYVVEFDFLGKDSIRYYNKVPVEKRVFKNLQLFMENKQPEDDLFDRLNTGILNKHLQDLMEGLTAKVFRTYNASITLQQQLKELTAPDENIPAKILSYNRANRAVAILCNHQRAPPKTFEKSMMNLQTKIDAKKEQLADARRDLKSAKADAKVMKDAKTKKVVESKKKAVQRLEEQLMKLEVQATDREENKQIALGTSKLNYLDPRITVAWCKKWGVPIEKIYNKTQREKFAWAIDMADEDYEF
As to the kind of experiment: Inhibition of topoisomerase 1 (unknown origin) assessed as DNA intercalation at 1 mM using pBR322 DNA as substrate measured after 30 mins by gel electrophoresis relative to control.

Test [2] concerns the target T1, DNA topoisomerase 1 (Homo sapiens). Briefly: Inhibition of topoisomerase 1 (unknown origin) assessed as reduction in relaxation of supercoiled DNA at 1 mM using pBR322 plasmid DNA as substrate measured after 30 mins by gel electrophoresis relative to control.
For test [3] the target is unchanged. As to the kind of experiment: Poison activity at topoisomerase 1 (unknown origin) assessed as stabilization of enzyme-DNA cleavage complex by measuring increase in nicked DNA formation at 1 mM using pBR322 DNA as substrate after 30 mins by agarose gel electrophoresis.

The structures appear in SMILES notation. Calls of active or inactive are those of the source. No cut-off for these calls is given here.

Usually inhibition stands for the relative decrease from the control value, in per cent.

Turning to `CC[n+]1c(-c2ccccc2)c2cc(N)ccc2c2ccc(N)cc21`, in test [1], the inhibition result was “Active”.
As to `O=C1CCC[C@H]2[C@@H]3CCCN[C@H]3[C@H](CCCN3C[C@H]4C[C@H](C3)c3cccc(=O)n3C4)CN12`, the inhibition in test [2] is 82.3%. Moreover, in test [3], the outcome was Active.
On to `O=C1CCC[C@H]2[C@H]3CCCN[C@@H]3[C@@H](CCCN3C[C@H]4C[C@H](C3)c3cccc(=O)n3C4)CN12`, for which the inhibition in test [2] came out at 58.6%. For the same compound, the outcome in test [3] was Active.
